This test concerns NCI-H1618 multicellular tumor spheroid viability. Briefly: Anticancer human tumor NCI-H1618 cell line growth inhibition.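 As to all read-outs here: spheroids exposed to agents for 7 days.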 As to conditions: for viability, T/C: stronger effect = lower value. The source says: Multicellular complex tumor spheroid response to DNA repair inhibitors in combination with DNA-damaging drugs
This study explores the anticancer activities of DNA-damaging drugs and inhibitors of DNA damage repair, both as single agents and in combinations. Complex tumor spheroids comprised of malignant cells, endothelial cells and mesenchymal stem cells served as an in vitro model for human solid tumors. This model system incorporates physiologically relevant features and patient-derived or established malignant cell lines with clinically relevant genetic alterations from many tumor types. Twenty-six patient-derived or established malignant cell lines were evaluated representing sarcoma, melanoma, small cell lung cancer (SCLC), non-small cell lung cancer (NSCLC), as well as bladder, ovarian and pancreatic cancers. The concentration ranges selected for each drug and investigational agent were based upon clinically achievable concentrations if the clinical Cmax of the agent was known.
Compounds. The drugs and compounds olaparib (NSC753686), talazoparib (NSC767125), berzosertib (NSC777718), elimusertib (NSC800525), nedisertib (NSC802822), VX-984 (NSC792969), AZD-1390 (NSC803789), temozolomide (NSC362856), topotecan (NSC609699), trabectedin (NSC813783), staurosporine (NSC755774), and gemcitabine (NSC613327) were obtained from the National Cancer Institute (NCI) Developmental Therapeutics Program Chemical Repository. The FDA-approved anticancer drug set is available from the Developmental Therapeutics Program at https://dtp.cancer.gov/organization/dscb/obtaining/available_plates.htm. […] The stock solutions were prepared in dimethyl sulfoxide (DMSO, Sigma-Aldrich, St. Louis, MO, cat. D2650) at 400-fold the tested concentration and stored at -70 degrees C. Prior to their use, the stock solutions were diluted in fresh medium and the final DMSO concentration in the assay was 0.25% (v/v). All drugs and investigational agents were tested over a range starting from a high concentration at or near the clinical Cmax and decreasing in half-log increments. If the clinical Cmax for an agent had not been determined, the highest concentration tested was 10 microM.
Cell Lines. The patient-derived cancer cell (PDC) lines: 156681-154-R-J1-PDC, 283228-195-R-J1-PDC, 287954-098-R-J1-PDC, 292921-168-R-J2-PDC, 349418-098-R-PDC, 425362-245-T-J1-PDC, 556581-035-R-J1-PDC, and BL0293-F563-PDC were received from the NCI Patient-Derived Models Repository (PDMR, https://pdmr.cancer.gov). The established cell lines HS-SY-2 (RRID:CVCL_8719), MPNST, and SYO-1 (RRID:CVCL_7146) were obtained from the Sloan Kettering Institute. The alveolar soft parts sarcoma cell line ASPS-1 (RRID:CVCL_S738) was established at the NCI and grown from internal seed stocks. The following established cell lines were purchased from the American Type Culture Collection (ATCC, Manassas, VA): G-401 (ATCC, cat. CRL-1441, RRID:CVCL_0270), SW982 (ATCC, cat. HTB-93, RRID:CVCL_1734), VA-ES-BJ (ATCC, cat. CRL-2138, RRID:CVCL_1785), NCI-H719 (ATCC, cat. CRL-5837, RRID:CVCL_1582), NCI-H196 (ATCC, cat. CRL-5823, RRID:CVCL_1509), NCI-H841 (ATCC, cat. CRL-5845, RRID:CVCL_1595), NCI-H1618 (ATCC, cat. CRL-5879, RRID:CVCL_1480), NCI-H1876 (ATCC, cat. CRL-5902, RRID:CVCL_1503), DMS 114 (ATCC, cat. CRL-2066; RRID:CVCL_1174), NCI-H211 (ATCC, cat. CRL-5824; RRID:CVCL_1529), and SW 1271 (ATCC, cat. CRL-2177, RRID:CVCL_1716). The small cell lung cancer cell line COR-L88 was purchased from Sigma-Aldrich (cat. 92031917-1VL, RRID:CVCL_1141). The non-small cell lung cancer cell lines NCI-H226 (RRID:CVCL_1544) and NCI-H322M (RRID:CVCL_1557) were established at the NCI and grown from internal seed stocks. Pooled donor human umbilical vein endothelial cells (HUVEC, Lonza, cat. CC-2519) and human mesenchymal stem cells (hMSC, Lonza, cat. PT-2501) were purchased from Lonza (Walkersville, MD).
Cell Culture. All cells were maintained in an incubator at 37 degrees C and 5% CO2 with 95% humidity. […]

Several values for one entry are separate records, joined by “and”; a condition that tells them apart may be missing. Identical values can stand only once. Activity calls are given as the source filed them. The calls were made as follows: active = viability on the fitted dose curve at most 10% of control; inactive = the rest.

As a reminder, the viability, T/C is the ratio of treated to control. A word on the IC50: it is the point on the concentration scale where inhibition reaches its midpoint.

As to `CC(C)n1c(=O)n(C)c2cnc3cc(F)c(-c4ccc(OCCCN5CCCCC5)nc4)cc3c21`, the viability, T/C (compound 0.0316 µM) is 92.6% and 97.3% and 82.8%; the viability, T/C (compound 0.1 µM) is 93.1% and 105%; the viability, T/C (compound 0.316 µM) is 85.2% and 96.6% and 100%; the viability, T/C (compound 1 µM) was 80.8% and 86.8%; the viability, T/C (compound 3.16 µM) was 75.5% and 87.7% and 75.1%; the viability, T/C (compound 10 µM) is 58.1% and 89.4% and 54.3%. Moreover, the outcome reads like this: (compound 0.1 µM) “inactive”; (compound 1 µM) “inactive”. Also, under “curve of compound”, the IC50 is above 10 µM.
Regarding `CC1COCCN1c1cc(-c2ccnn2C)c2ccnc(-c3ccn[nH]3)c2n1` (stereo not given), the viability, T/C by setting is: (compound 0.0316 µM) 66.6% and 84.9% and 71.4%; (compound 0.1 µM) 36.7% and 35.1% and 32.9%; (compound 0.316 µM) 5.46% and 8.95% and 25.5%; (compound 1 µM) 1.99% and 2.55% and 7.57%; (compound 3.16 µM) 1.12% and 1.22% and 2.57%; (compound 10 µM) 2.74% and 1.68% and 1.22%. The IC50 (curve of compound) is 0.06 µM and 0.0709 µM and 0.0643 µM.
In the case of `CC[C@@]1(O)C(=O)OCc2c1cc1n(c2=O)Cc2cc3c(CN(C)C)c(O)ccc3nc2-1`, where the note is “compound 0.3 µM”, the viability, T/C was 1.94% [middle of 9 runs]. Besides, the IC50 (compound alone, run of 11/07/2019) was 9.37 nM [middle of 5 runs].
Consider `CNCc1ccc(-c2cc(-c3nc(-c4ccc(S(=O)(=O)C(C)C)cc4)cnc3N)on2)cc1`, for which the viability, T/C was 97.2% and 99.1% and 104% (compound 0.00949 µM); 96.2% and 99.4% and 112% (compound 0.03 µM); 25.7% and 95.3% and 102% (compound 0.0949 µM); 25.8% and 85.3% and 90% (compound 0.3 µM); 18.8% and 21.5% and 11.7% (compound 0.949 µM); 20.3% and 0.47% and 4.41% (compound 3 µM). The half-maximal inhibitory concentration (IC50) (curve of compound) was 0.0638 µM and 0.567 µM and 0.54 µM.
Turning to `COc1cc(C)[nH]c(=O)c1CN1CCc2c(Cl)cc(C(OC)C3COC3)c(Cl)c2C1=O` (stereo not given), the viability, T/C was 83.9% and 102% and 58.1% (compound 0.0316 µM); 77.3% and 49.4% (compound 0.1 µM); 67.3% and 73.7% (compound 0.316 µM); 76.1% and 83% and 91.4% (compound 1 µM); 69% and 82.6% and 93.8% (compound 3.16 µM); 65.9% and 85.6% and 65.3% (compound 10 µM). Further, the outcome is, setting by setting: (compound 0.1 µM) “inactive”; (compound 0.316 µM) “inactive”. The 50% inhibitory concentration (IC50) (curve of compound) is above 10 µM.
As to `COc1cc2c(cc1O)CCNC21CSC2c3c(OC(C)=O)c(C)c4c(c3C(COC1=O)N1C(O)C3Cc5cc(C)c(OC)c(O)c5C(C21)N3C)OCO4` (stereo not given), the viability, T/C by setting is: (compound 30 pM) 95.9% [middle of 10 runs]; (compound 0.0003 µM) 5.95% [middle of 10 runs]; (compound 0.000949 µM) 3.52% [middle of 10 runs]; (compound 0.003 µM) 2.99% [middle of 10 runs]. Where the note is “compound alone, run of 12/16/2019”, the IC50 was 0.124 nM [middle of 9 runs].
On to `COc1ccc([C@@H](O)c2cc(-c3ncnc4cc(N5CCOCC5)ccc34)c(F)cc2Cl)nn1`, for which the viability, T/C reads like this: (compound 0.0316 µM) 84% and 103% and 101%; (compound 0.1 µM) 109% and 97.9% and 84.5%; (compound 0.316 µM) 108% and 103% and 83.4%; (compound 1 µM) 98.4% and 98.8% and 76%; (compound 3.16 µM) 84.1% and 83% and 83.7%; (compound 10 µM) 22.8% and 78.7% and 32.8%. In addition, the IC50 (curve of compound) is 6 µM and > 10 µM and 6.75 µM.
Take `Cc1cc(C)c(CNC(=O)c2cc(-c3ccc(CN4CCOCC4)cc3)cc3c2cnn3C2CCCC2)c(=O)[nH]1`: the viability, T/C was 90.5% and 97.2% and 101% (compound 0.0316 µM); 103% and 101% and 107% (compound 0.1 µM); 89.7% and 98.2% and 101% (compound 0.316 µM); 94.6% and 94.8% and 99% (compound 1 µM); 89% and 95.3% and 95.9% (compound 3.16 µM); 76.2% and 95.1% and 88.9% (compound 10 µM). Moreover, the half-maximal inhibitory concentration (IC50) (curve of compound) is above 10 µM.
As to `Cc1sc2c(c1C)C(c1ccc(Cl)cc1)=NC(CC(=O)Nc1ccc(O)cc1)c1nnc(C)n1-2` (stereo not given), the viability, T/C runs as follows: (compound 0.00949 µM) 109% (2×) and 110%; (compound 0.03 µM) 105% and 108% and 115%; (compound 0.0949 µM) 100%; (compound 0.3 µM) 102% and 95.7% and 56.4%; (compound 0.949 µM) 91.1% and 80.5% and 47%; (compound 3 µM) 33.8% and 35.4% and 16.8%. In addition, for the setting “compound 0.0949 µM”, the result was inactive. Besides, where the note is “curve of compound”, the IC50 was 2.16 µM and 2.06 µM and 0.567 µM.
Turning to `Cn1ncnc1[C@H]1c2n[nH]c(=O)c3cc(F)cc(c23)N[C@@H]1c1ccc(F)cc1`, the viability, T/C by setting is: (compound 0.00949 µM) 92.2% and 26.7% and 101%; (compound 0.03 µM) 91.8% and 23.5% and 84.8%; (compound 0.0949 µM) 88.2% and 22.8% and 79.8%; (compound 0.3 µM) 13.2% and 5.31% and 10.7%; (compound 0.949 µM) 1.9% and 23.1% and 3.83%; (compound 3 µM) 1.81% and 2.3% and 3.2%.
`Cn1nnc2c(C(N)=O)ncn2c1=O`: the viability, T/C by setting is: (compound 3.16 µM) 19.8% [middle of 10 runs]; (compound 10 µM) 5.8% [middle of 10 runs]; (compound 31.6 µM) 10.4% [middle of 10 runs].
As to `O=C(c1cc(Cc2n[nH]c(=O)c3ccccc23)ccc1F)N1CCN(C(=O)C2CC2)CC1`, the viability, T/C by setting is: (compound 0.0949 µM) 98.1% and 105% and 94.9%; (compound 0.3 µM) 103% and 90.6%; (compound 0.949 µM) 83.7% and 96.2% and 98.8%; (compound 3 µM) 23.2% and 98.6% and 91%; (compound 9.49 µM) 23.5% and 56.3% and 34.1%; (compound 30 µM) 25% and 3.78% and 9.4%. For the same compound, the result (compound 0.3 µM) was inactive. In addition, the half-maximal inhibitory concentration (IC50) (curve of compound) was 1.82 µM and 10.9 µM and 6.89 µM.
In the case of `[2H]c1nc(C)nc([2H])c1-c1cc(NC[C@@H](C)c2cccc3c(C(=O)NC)ccnc23)ncn1`, the viability, T/C by setting is: (compound 0.0316 µM) 97% and 100% and 12.9%; (compound 0.1 µM) 98.5% and 98% and 8.24%; (compound 0.316 µM) 101% and 117%; (compound 1 µM) 96.4% and 101% and 142%; (compound 3.16 µM) 88.6% and 94% and 106%; (compound 10 µM) 97.2% and 102% and 91.8%. Also, the outcome (compound 0.316 µM) was inactive.
